Legend:
[1] = molecular target: Ephrin type-A receptor 8 (Homo sapiens) (UniProt P29322); conditions: Compound concentration 1000.0 nM
[2] = molecular target: Protein kinase C epsilon type (Homo sapiens) (UniProt Q02156); conditions: Compound concentration 1000.0 nM
Autotaxin = Autotaxin (Homo sapiens, UniProt Q13822); assay: Biochemical assay: measurement of LPA (human)
[3] = molecular target: Beta-2 adrenergic receptor (Homo sapiens) (UniProt P07550); conditions: Compound concentration 10.0 uM
[4] = molecular target: Mitogen-activated protein kinase 14 (Homo sapiens) (UniProt Q16539); conditions: Compound concentration 1000.0 nM
Chain of Mitogen-activated protein kinase 14 (Homo sapiens) (Q16539 whole entry): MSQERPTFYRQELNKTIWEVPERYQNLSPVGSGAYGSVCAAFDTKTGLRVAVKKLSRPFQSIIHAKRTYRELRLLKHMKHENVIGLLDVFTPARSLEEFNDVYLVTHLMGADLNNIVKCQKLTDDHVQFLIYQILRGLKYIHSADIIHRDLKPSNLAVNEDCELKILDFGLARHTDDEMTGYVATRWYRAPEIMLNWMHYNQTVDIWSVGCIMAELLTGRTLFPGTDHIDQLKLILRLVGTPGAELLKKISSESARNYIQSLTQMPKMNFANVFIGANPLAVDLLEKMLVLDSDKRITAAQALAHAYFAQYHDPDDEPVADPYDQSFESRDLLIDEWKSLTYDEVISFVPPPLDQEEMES

[5] = molecular target: Beta-1 adrenergic receptor (Homo sapiens) (UniProt P08588); assay: BETA1/HUM Cerep selectivity data (BI); conditions: Compound concentration 10.0 uM
[6] = molecular target: Glucocorticoid receptor (Homo sapiens) (UniProt P04150); assay: GCORTICOID/H Cerep selectivity data (BI); conditions: Compound concentration 10.0 uM
[7] = molecular target: Histamine H2 receptor (Homo sapiens) (UniProt P25021); assay: H2/APT/HS Cerep selectivity data (BI); conditions: filed as antagonist, Compound concentration 10.0 uM
[8] = molecular target: Sodium-dependent noradrenaline transporter (Homo sapiens) (UniProt P23975); assay: NEUP/H Cerep selectivity data (BI); conditions: Compound concentration 10.0 uM
[9] = molecular target: MAO-A (amine oxidase [flavin-containing] A) (Rattus norvegicus, UniProt P21396); assay: MAO-A_ANTAG Cerep selectivity data (BI); design: mode of action antagonist; scale not given: the % may be the effect or the level left; conditions: compound concentration 10 uM, read-out: % Ctrl
Chain of MAO-A (amine oxidase [flavin-containing] A) (P21396 whole entry): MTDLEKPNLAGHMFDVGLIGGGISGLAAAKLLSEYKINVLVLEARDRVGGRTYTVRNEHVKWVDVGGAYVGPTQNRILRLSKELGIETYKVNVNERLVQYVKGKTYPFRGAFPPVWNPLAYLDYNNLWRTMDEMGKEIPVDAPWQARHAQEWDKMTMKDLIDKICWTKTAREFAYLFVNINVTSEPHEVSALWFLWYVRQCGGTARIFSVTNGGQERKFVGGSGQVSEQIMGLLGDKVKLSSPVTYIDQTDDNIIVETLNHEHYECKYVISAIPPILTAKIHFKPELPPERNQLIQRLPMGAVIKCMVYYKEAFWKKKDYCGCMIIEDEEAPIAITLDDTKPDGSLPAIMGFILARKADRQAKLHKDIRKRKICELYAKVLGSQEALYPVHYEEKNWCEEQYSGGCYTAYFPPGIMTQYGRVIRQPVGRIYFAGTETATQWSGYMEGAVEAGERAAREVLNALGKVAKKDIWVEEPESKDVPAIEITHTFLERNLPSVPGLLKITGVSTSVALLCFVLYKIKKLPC

[10] = molecular target: Potassium voltage-gated channel subfamily V member 1 (Rattus norvegicus) (UniProt P97557); assay: K+/VOLT/RA Cerep selectivity data (BI); conditions: Compound concentration 10.0 uM
[11] = molecular target: Vasopressin V1a receptor (Homo sapiens) (UniProt P37288); assay: V1A/HUM Cerep selectivity data (BI); conditions: Compound concentration 10.0 uM
Chain of Vasopressin V1a receptor (Homo sapiens) (P37288 whole entry, looked up): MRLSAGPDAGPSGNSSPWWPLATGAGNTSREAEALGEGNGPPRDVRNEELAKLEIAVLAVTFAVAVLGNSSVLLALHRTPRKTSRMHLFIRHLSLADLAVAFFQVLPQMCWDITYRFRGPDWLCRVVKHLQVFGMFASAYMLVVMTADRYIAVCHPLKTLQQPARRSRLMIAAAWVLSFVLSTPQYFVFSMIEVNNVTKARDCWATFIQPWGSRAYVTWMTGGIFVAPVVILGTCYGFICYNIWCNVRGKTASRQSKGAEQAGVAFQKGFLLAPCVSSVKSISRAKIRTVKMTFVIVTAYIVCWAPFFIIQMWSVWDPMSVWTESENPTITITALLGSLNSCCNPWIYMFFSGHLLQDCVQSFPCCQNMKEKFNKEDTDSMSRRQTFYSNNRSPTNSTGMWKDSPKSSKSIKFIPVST

[12] = molecular target: D(2) dopamine receptor (Homo sapiens) (UniProt P14416); conditions: Compound concentration 10.0 uM
Chain of D(2) dopamine receptor (Homo sapiens) (P14416 whole entry): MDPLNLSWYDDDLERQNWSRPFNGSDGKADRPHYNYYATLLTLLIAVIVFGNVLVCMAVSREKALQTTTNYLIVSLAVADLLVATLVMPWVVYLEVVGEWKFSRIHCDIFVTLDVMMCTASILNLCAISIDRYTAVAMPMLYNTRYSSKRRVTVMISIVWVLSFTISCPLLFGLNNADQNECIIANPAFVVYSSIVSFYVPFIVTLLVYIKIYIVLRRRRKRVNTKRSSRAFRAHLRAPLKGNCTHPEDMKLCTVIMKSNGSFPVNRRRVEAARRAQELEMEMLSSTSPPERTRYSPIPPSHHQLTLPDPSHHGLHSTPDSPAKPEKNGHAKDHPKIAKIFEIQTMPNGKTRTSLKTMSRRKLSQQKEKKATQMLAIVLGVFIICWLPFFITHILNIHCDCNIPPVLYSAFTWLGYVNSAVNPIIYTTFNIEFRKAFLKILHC

[13] = molecular target: Cannabinoid receptor 2 (Homo sapiens) (UniProt P34972); assay: CB2/PERIPH/H Cerep selectivity data (BI); conditions: Compound concentration 10.0 uM
[14] = molecular target: 5-hydroxytryptamine receptor 2A (Homo sapiens, UniProt P28223); assay: GPCRScan assay: inhibition of 5-HT2A; design: radioligand conc. used [nm] 1.2 – 2.4, parental cells HEKT
[15] = molecular target: Muscarinic acetylcholine receptor M1 (Homo sapiens) (UniProt P11229); assay: M1/H Cerep selectivity data (BI); conditions: Compound concentration 10.0 uM
[16] = molecular target: Sodium-dependent dopamine transporter (Homo sapiens) (UniProt Q01959); conditions: Compound concentration 10.0 uM
Chain of Sodium-dependent dopamine transporter (Homo sapiens) (Q01959 whole entry): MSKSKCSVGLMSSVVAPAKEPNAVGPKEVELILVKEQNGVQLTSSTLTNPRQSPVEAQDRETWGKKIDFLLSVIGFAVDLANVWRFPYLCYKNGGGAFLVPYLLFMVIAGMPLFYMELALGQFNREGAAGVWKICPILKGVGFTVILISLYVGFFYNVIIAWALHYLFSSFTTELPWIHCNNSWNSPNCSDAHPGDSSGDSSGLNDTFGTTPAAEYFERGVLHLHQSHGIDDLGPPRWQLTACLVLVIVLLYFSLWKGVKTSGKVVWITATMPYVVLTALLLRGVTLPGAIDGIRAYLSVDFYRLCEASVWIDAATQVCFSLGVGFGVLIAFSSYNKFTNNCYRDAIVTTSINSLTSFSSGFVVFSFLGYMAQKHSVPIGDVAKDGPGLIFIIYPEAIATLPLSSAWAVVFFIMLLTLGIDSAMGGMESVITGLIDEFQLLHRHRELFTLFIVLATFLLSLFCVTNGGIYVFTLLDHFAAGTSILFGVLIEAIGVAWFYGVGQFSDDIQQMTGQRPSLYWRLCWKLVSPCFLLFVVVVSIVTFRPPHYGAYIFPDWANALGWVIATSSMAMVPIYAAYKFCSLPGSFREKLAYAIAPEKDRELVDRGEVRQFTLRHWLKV

[17] = molecular target: Neuronal acetylcholine receptor; alpha4/beta2 (Homo sapiens) (UniProt P17787+P43681); assay: N_NEURO_A4B2 Cerep selectivity data (BI); format: protein-complex assay; conditions: filed as agonist, Compound concentration 10.0 uM
[18] = molecular target: D(1A) dopamine receptor (Homo sapiens) (UniProt P21728); assay: D1/H Cerep selectivity data (BI); conditions: filed as antagonist, Compound concentration 10.0 uM
[19] = molecular target: T1, 5-hydroxytryptamine receptor 1A (Homo sapiens) (UniProt P08908); assay: 5HT1A/H Cerep selectivity data (BI); conditions: Compound concentration 10.0 uM
T1 sequence (whole entry): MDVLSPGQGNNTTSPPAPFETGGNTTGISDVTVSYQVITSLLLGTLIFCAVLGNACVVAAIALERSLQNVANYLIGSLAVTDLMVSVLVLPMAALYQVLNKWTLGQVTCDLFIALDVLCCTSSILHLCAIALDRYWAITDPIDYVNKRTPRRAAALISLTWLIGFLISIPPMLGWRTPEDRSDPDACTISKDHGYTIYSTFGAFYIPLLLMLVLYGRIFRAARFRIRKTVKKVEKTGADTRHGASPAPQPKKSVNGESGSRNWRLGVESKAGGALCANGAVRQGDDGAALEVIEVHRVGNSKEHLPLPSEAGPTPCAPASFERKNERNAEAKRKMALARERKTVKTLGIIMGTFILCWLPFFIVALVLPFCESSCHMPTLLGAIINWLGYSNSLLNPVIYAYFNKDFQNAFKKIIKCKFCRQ

[20] = molecular target: Glutamate receptor ionotropic, NMDA 2A (Rattus norvegicus) (UniProt Q00959); assay: NMDA/R Cerep selectivity data (BI); conditions: Compound concentration 10.0 uM
[21] = molecular target: Tyrosine-protein kinase Lck (Homo sapiens) (UniProt P06239); assay: LCK_CE Cerep selectivity data (BI); conditions: Compound concentration 10.0 uM
[22] = molecular target: Angiotensin-converting enzyme (Homo sapiens) (UniProt P12821); assay: ACE(HU_AMTCH400) Cerep selectivity data (BI); conditions: Compound concentration 10.0 uM
[23] = molecular target: Mu-type opioid receptor (Homo sapiens) (UniProt P35372); assay: MU/H Cerep selectivity data (BI); conditions: Compound concentration 10.0 uM
Chain of Mu-type opioid receptor (Homo sapiens) (P35372 whole entry): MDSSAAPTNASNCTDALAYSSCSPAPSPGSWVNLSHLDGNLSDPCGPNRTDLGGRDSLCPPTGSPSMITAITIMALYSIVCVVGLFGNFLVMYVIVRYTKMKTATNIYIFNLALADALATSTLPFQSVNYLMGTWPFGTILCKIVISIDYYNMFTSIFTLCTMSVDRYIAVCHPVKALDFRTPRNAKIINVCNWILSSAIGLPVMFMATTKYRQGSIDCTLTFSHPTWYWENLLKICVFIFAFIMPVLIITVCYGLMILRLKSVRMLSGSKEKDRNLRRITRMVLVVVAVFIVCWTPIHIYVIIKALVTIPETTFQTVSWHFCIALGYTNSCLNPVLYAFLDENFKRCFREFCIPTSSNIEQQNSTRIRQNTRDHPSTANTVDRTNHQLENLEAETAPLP

[24] = molecular target: 5-hydroxytryptamine receptor 2B (Homo sapiens) (UniProt P41595); assay: 5HT2B/H AG Cerep selectivity data (BI); conditions: filed as agonist, Compound concentration 10.0 uM
Chain of 5-hydroxytryptamine receptor 2B (Homo sapiens) (P41595 whole entry): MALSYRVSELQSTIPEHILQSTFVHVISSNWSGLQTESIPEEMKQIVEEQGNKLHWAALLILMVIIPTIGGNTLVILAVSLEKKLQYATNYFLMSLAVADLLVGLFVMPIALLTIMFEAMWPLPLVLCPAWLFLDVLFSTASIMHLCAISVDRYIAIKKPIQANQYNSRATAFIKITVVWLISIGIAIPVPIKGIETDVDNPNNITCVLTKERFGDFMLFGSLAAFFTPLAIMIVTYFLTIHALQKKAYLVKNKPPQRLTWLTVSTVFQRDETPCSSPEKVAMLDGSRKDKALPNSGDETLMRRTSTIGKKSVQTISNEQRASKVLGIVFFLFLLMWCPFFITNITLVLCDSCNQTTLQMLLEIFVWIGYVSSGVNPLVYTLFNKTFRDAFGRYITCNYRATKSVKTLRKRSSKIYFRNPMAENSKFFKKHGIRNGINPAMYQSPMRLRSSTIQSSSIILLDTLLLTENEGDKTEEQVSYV

[25] = molecular target: Sodium-dependent dopamine transporter (Homo sapiens) (UniProt Q01959); assay: DATRANS/HUM Cerep selectivity data (BI); conditions: Compound concentration 10.0 uM
[26] = molecular target: Muscarinic acetylcholine receptor M3 (Homo sapiens) (UniProt P20309); assay: M3/H Cerep selectivity data (BI); conditions: Compound concentration 10.0 uM
[27] = molecular target: Histamine H1 receptor (Homo sapiens) (UniProt P35367); assay: H1/PYRIL/HS Cerep selectivity data (BI); conditions: Compound concentration 10.0 uM
[28] = molecular target: D(2) dopamine receptor (Homo sapiens) (UniProt P14416); assay: D2SH_AGON Cerep selectivity data (BI); conditions: filed as agonist, Compound concentration 10.0 uM
[29] = molecular target: T2, Alpha-2A adrenergic receptor (Homo sapiens) (UniProt P08913); assay: ALPHA2A/HU Cerep selectivity data (BI); conditions: Compound concentration 10.0 uM
T2 sequence (whole entry): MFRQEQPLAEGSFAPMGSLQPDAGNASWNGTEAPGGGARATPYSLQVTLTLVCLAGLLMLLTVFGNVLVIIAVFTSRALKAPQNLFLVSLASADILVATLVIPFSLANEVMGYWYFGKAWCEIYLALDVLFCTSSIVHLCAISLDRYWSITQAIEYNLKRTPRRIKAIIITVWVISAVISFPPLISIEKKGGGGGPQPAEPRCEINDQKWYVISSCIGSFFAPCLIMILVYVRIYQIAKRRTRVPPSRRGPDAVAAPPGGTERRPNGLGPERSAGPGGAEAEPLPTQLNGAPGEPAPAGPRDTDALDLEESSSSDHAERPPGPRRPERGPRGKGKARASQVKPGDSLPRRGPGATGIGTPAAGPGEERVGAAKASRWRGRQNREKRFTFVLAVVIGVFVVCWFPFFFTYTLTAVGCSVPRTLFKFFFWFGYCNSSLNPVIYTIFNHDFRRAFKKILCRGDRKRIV

Chain of Protein kinase C epsilon type (Homo sapiens) (Q02156 whole entry): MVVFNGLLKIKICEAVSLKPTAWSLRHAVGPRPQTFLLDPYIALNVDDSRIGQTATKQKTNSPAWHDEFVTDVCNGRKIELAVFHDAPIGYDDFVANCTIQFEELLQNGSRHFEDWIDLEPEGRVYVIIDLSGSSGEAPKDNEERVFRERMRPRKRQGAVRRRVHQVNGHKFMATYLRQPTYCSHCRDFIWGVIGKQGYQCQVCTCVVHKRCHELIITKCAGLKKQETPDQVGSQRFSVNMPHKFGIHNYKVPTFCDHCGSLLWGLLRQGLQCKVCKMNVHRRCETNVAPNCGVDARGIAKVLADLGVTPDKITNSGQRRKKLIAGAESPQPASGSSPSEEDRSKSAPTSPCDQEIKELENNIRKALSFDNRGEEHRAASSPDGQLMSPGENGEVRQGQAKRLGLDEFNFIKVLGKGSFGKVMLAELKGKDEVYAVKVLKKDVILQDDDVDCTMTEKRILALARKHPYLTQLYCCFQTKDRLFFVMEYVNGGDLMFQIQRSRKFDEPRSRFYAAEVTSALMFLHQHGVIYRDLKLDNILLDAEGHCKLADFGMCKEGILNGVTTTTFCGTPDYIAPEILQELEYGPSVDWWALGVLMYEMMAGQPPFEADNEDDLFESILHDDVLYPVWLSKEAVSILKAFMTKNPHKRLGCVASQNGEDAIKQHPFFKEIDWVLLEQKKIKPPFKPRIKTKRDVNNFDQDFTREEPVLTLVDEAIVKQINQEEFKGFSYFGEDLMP
Chain of Ephrin type-A receptor 8 (Homo sapiens) (P29322 whole entry): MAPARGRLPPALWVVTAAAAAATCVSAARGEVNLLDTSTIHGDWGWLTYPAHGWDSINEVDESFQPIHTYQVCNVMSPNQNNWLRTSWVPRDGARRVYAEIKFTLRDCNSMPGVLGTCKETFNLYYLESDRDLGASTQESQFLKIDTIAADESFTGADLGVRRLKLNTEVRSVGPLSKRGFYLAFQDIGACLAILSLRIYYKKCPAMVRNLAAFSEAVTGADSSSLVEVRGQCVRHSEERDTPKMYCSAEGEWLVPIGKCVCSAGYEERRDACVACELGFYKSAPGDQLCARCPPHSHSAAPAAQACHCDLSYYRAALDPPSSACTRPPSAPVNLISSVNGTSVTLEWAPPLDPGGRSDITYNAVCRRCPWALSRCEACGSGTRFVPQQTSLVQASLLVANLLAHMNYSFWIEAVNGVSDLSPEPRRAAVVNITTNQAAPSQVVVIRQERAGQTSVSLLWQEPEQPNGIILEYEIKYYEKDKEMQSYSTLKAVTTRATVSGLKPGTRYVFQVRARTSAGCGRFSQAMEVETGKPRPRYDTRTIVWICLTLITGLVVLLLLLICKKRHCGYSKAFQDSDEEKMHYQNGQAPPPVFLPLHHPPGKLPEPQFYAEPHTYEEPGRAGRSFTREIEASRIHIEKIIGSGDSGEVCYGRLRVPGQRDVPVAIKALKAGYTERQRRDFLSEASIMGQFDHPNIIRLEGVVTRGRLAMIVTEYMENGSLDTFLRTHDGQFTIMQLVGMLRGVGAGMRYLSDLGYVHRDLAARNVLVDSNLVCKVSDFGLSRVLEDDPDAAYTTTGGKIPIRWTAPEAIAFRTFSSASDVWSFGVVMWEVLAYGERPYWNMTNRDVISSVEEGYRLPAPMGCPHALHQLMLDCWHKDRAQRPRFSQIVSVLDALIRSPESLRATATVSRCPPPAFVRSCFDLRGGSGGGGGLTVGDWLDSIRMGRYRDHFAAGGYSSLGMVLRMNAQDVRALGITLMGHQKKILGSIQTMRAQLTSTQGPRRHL

Cc1nccc(COC(=O)N2C[C@@H]3[C@@H](CNC(=O)c4ccc5[nH]nnc5c4)[C@@H]3C2)n1 [BI 3017]
residual activity [1]: 100%
residual activity [2]: 100%
IC50 (Autotaxin): 8.9 µM (not active)
inhibition [3]: -9.93%
residual activity [4]: 100%

O=C(NC[C@@H]1[C@H]2CN(C(=O)OCc3cc(C(F)(F)F)cc(C(F)(F)F)c3)C[C@@H]12)c1ccc2[nH]nnc2c1 [BI 2545]
residual activity [1]: 100%
residual activity [2]: 100%
residual activity [5]: 98%
residual activity [6]: 99%
residual activity [7]: 110%
residual activity [8]: 39%
activity at 10 µM [9]: 70% (not active)
residual activity [10]: 103%
residual activity [11]: 80%
inhibition [12]: 7.71%
residual activity [13]: 77%
Ki [14]: 8.68 µM
residual activity [15]: 97%
inhibition [16]: -2.65%
residual activity [17]: 111%
residual activity [18]: 92%
residual activity [19]: 83%
residual activity [20]: 100%
residual activity [21]: 96%
residual activity [22]: 109%
residual activity [4]: 100%
residual activity [23]: 67%
residual activity [24]: 54%
residual activity [25]: 57%
residual activity [26]: 100%
residual activity [27]: 101%
residual activity [28]: 97%
residual activity [29]: 86%

Source: ChEMBL document CHEMBL4507275, “Data for DCP probe BI-2545” (2021)
